Data taken from ChEMBL document CHEMBL1201862, “PubChem BioAssay data set” (2004).
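Interpolation was linear, between the two tested concentrations surrounding the appropriate level; five concentrations were tested over 48 hours in 96-well plates. Here, GI50 denotes the concentration required for 50% inhibition of growth.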 The source made the active and inactive calls. Cut-off read from the data, not from the text of the source: active = GI50 up to about 1.1 µM and inactive = higher.

How the values were obtained:
Test in all cases: NCI-60 cell line screen, 48 h
HOP-92 = test system: HOP-92
DMS-273 = test system: DMS-273
OVCAR-5 = test system: OVCAR-5
DLD-1 = test system: DLD-1
786-0 = test system: 786-0
RXF 631 = test system: RXF 631
SF-268 = test system: SF-268
NCI-H460 = test system: NCI-H460
Malme-3M = test system: Malme-3M
IGROV-1 = test system: IGROV-1
SK-OV-3 = test system: SK-OV-3
CCRF-CEM = test system: CCRF-CEM
SW-620 = test system: SW-620
LXFL 529 = test system: LXFL 529
SK-MEL-2 = test system: SK-MEL-2
UACC-257 = test system: UACC-257
RPMI-8226 = test system: RPMI-8226
NCI-H23 = test system: NCI-H23
HCT-116 = test system: HCT-116
MOLT-4 = test system: MOLT-4
KM-20L2 = test system: KM-20L2
OVCAR-8 = test system: OVCAR-8
HCT-15 = test system: HCT-15
COLO 205 = test system: COLO 205
SN12C = test system: SN12C
OVCAR-4 = test system: OVCAR-4
SNB-19 = test system: SNB-19
HL-60 = test system: HL-60
HOP-18 = test system: HOP-18
SK-MEL-5 = test system: SK-MEL-5
EKVX = test system: EKVX
NCI-H226 = test system: NCI-H226
UACC-62 = test system: UACC-62
SR = test system: SR
UO-31 = test system: UO-31
ACHN = test system: ACHN
SF-539 = test system: SF-539
M19-MEL = test system: M19-MEL
RXF 393 = test system: RXF 393
NCI-H522 = test system: NCI-H522
DMS-114 = test system: DMS-114
A549 = test system: A549
SF-295 = test system: SF-295
OVCAR-3 = test system: OVCAR-3
SNB-75 = test system: SNB-75
K562 = test system: K562
M14 = test system: M14
HOP-62 = test system: HOP-62
SK-MEL-28 = test system: SK-MEL-28
HT-29 = test system: HT-29
HCC 2998 = test system: HCC 2998
KM12 = test system: KM12
SNB-78 = test system: SNB-78
U-251 = test system: U-251
TK-10 = test system: TK-10
MCF7 = test system: MCF7
Hs-578T = test system: Hs-578T
T47D = test system: T47D
A498 = test system: A498
XF498 = test system: XF498
MDA-MB-435 = test system: MDA-MB-435
PC-3 = test system: PC-3
LOX IMVI = test system: LOX IMVI
MDA-MB-231 = test system: MDA-MB-231
NCI/ADR-RES = test system: NCI/ADR-RES
MDA-N = test system: MDA-N
DU-145 = test system: DU-145
CAKI-1 = test system: CAKI-1

## Cc1ccccc1N(CCC#N)C1=NN(C(=O)CC(=O)Nc2ccc(Cl)cc2)C(c2ccccc2)C1 (stereo not given)
HOP-92
  GI50: > 100 µM (inactive)
DMS-273
  GI50: > 100 µM (inactive)
OVCAR-5
  GI50: > 100 µM (inactive)
DLD-1
  GI50: > 100 µM (inactive)
786-0
  GI50: > 100 µM (inactive)
RXF 631
  GI50: > 100 µM (inactive)
SF-268
  GI50: > 100 µM (inactive)
NCI-H460
  GI50: > 100 µM (inactive)
Malme-3M
  GI50: > 100 µM (inactive)
IGROV-1
  GI50: > 100 µM (inactive)
SK-OV-3
  GI50: > 100 µM (inactive)
CCRF-CEM
  GI50: > 100 µM (inactive)
SW-620
  GI50: > 100 µM (inactive)
LXFL 529
  GI50: > 100 µM (inactive)
SK-MEL-2
  GI50: > 100 µM (inactive)
UACC-257
  GI50: > 100 µM (inactive)
RPMI-8226
  GI50: > 100 µM (inactive)
NCI-H23
  GI50: > 100 µM (inactive)
HCT-116
  GI50: > 100 µM (inactive)
MOLT-4
  GI50: > 100 µM (inactive)
KM-20L2
  GI50: > 100 µM (inactive)
OVCAR-8
  GI50: > 100 µM (inactive)
HCT-15
  GI50: > 100 µM
COLO 205
  GI50: > 100 µM (inactive)
SN12C
  GI50: > 100 µM (inactive)
OVCAR-4
  GI50: > 100 µM (inactive)
SNB-19
  GI50: > 100 µM (inactive)
HL-60
  GI50: > 100 µM (inactive)
HOP-18
  GI50: > 100 µM (inactive)
SK-MEL-5
  GI50: > 100 µM (inactive)
EKVX
  GI50: > 100 µM (inactive)
NCI-H226
  GI50: > 100 µM (inactive)
UACC-62
  GI50: > 100 µM (inactive)
SR
  GI50: > 100 µM (inactive)
UO-31
  GI50: > 100 µM (inactive)
ACHN
  GI50: > 100 µM (inactive)
SF-539
  GI50: > 100 µM (inactive)
M19-MEL
  GI50: > 100 µM (inactive)
RXF 393
  GI50: > 100 µM (inactive)
NCI-H522
  GI50: > 100 µM (inactive)
DMS-114
  GI50: > 100 µM (inactive)
A549
  GI50: > 100 µM (inactive)
SF-295
  GI50: > 100 µM (inactive)
OVCAR-3
  GI50: > 100 µM (inactive)
SNB-75
  GI50: > 100 µM (inactive)
K562
  GI50: > 100 µM (inactive)
M14
  GI50: > 100 µM (inactive)
HOP-62
  GI50: > 100 µM (inactive)
SK-MEL-28
  GI50: > 100 µM (inactive)
HT-29
  GI50: > 100 µM (inactive)
HCC 2998
  GI50: > 100 µM (inactive)
KM12
  GI50: > 100 µM (inactive)
SNB-78
  GI50: > 100 µM (inactive)
U-251
  GI50: > 100 µM (inactive)

## C/C(=N\N=C(/S)N1CC2CCC(CC2)C1)c1cccc[n+]1[O-]
HOP-92
  GI50: 13.2 µM (inactive)
DMS-273
  GI50: 2.62 µM (inactive)
OVCAR-5
  GI50: 6.11 µM (inactive)
DLD-1
  GI50: 2.06 µM (inactive)
786-0
  GI50: 6.9 µM (inactive)
RXF 631
  GI50: 3.45 µM (inactive)
SF-268
  GI50: 11.8 µM (inactive)
NCI-H460
  GI50: 8.09 µM (inactive)
Malme-3M
  GI50: 12.5 µM (inactive)
TK-10
  GI50: 20.4 µM (inactive)
IGROV-1
  GI50: 17.9 µM (inactive)
SK-OV-3
  GI50: 35.8 µM (inactive)
CCRF-CEM
  GI50: 0.238 µM (active)
SW-620
  GI50: 4.35 µM (inactive)
MCF7
  GI50: 5.7 µM (inactive)
SK-MEL-2
  GI50: 15.3 µM (inactive)
UACC-257
  GI50: 7.59 µM (inactive)
RPMI-8226
  GI50: 0.381 µM (active)
NCI-H23
  GI50: 16.6 µM (inactive)
Hs-578T
  GI50: 18.4 µM (inactive)
T47D
  GI50: 22.6 µM (inactive)
HCT-116
  GI50: 3.61 µM (inactive)
MOLT-4
  GI50: 0.373 µM (active)
KM-20L2
  GI50: 1.52 µM (inactive)
OVCAR-8
  GI50: 6.44 µM (inactive)
A498
  GI50: 18.3 µM (inactive)
HCT-15
  GI50: 1.8 µM
COLO 205
  GI50: 3.66 µM (inactive)
SN12C
  GI50: 7.67 µM (inactive)
XF498
  GI50: 21.4 µM (inactive)
OVCAR-4
  GI50: 2.46 µM (inactive)
SNB-19
  GI50: 9.08 µM (inactive)
HL-60
  GI50: 0.23 µM (active)
HOP-18
  GI50: 30.3 µM (inactive)
SK-MEL-5
  GI50: 6.21 µM (inactive)
MDA-MB-435
  GI50: 28.5 µM (inactive)
PC-3
  GI50: 11.7 µM (inactive)
LOX IMVI
  GI50: 5.02 µM (inactive)
EKVX
  GI50: 7.45 µM (inactive)
NCI-H226
  GI50: 3.41 µM (inactive)
UACC-62
  GI50: 7.31 µM (inactive)
UO-31
  GI50: 3.12 µM (inactive)
ACHN
  GI50: 5 µM (inactive)
SF-539
  GI50: 5.85 µM (inactive)
MDA-MB-231
  GI50: 19.5 µM (inactive)
M19-MEL
  GI50: 3.58 µM (inactive)
NCI/ADR-RES
  GI50: 3.09 µM (inactive)
RXF 393
  GI50: 13.7 µM (inactive)
NCI-H522
  GI50: 11.4 µM (inactive)
DMS-114
  GI50: 1.35 µM (inactive)
MDA-N
  GI50: 14.2 µM (inactive)
A549
  GI50: 4.98 µM (inactive)
SF-295
  GI50: 4.43 µM (inactive)
OVCAR-3
  GI50: 0.044 µM (active)
SNB-75
  GI50: 11.5 µM (inactive)
K562
  GI50: 0.228 µM (active)
M14
  GI50: 6.15 µM (inactive)
HOP-62
  GI50: 12.6 µM (inactive)
SK-MEL-28
  GI50: 5.2 µM (inactive)
HT-29
  GI50: 1.84 µM (inactive)
HCC 2998
  GI50: 10.8 µM (inactive)
KM12
  GI50: 4.56 µM (inactive)
DU-145
  GI50: 46.8 µM (inactive)
SNB-78
  GI50: 8.34 µM (inactive)
CAKI-1
  GI50: 9.14 µM (inactive)
U-251
  GI50: 6.28 µM (inactive)
